Data reported in patent publication US12357598B2, “Treatment of neurodevelopmental disorders” (THE REGENTS OF THE UNIVERSITY OF CALIFORNIA, priority 2018, dated 2025).

Columns and labels:
Assay type in all cases: in vivo, mouse
[1] = Measurement of glyphosate in the blood (LC/MS/MS); details: mothers treated with 0.095% glyphosate E5-P21 and their offspring
Procedure: Measurement of glyphosate in the blood. Water or 0.095% glyphosate was given to pregnant mice from E5 to P21, as described above. At weaning (P21), mothers and male offspring mice were deeply anesthetized with isoflurane and plasma was collected. The plasma samples were stored at −80° C. before assay. Measurement of glyphosate in the plasma was performed using LC/MS/MS at UC Davis.
The 40 μL of internal standard (2 μg/mL of glyphosate-2-^13C solution in methanol) and 40 μL of methanol were added to 20 μL of plasma. The spiked sample was vortexed for 5 minutes and then centrifuged at […] for another 5 minutes. The supernatants were transferred for the followed LC/MS/MS measurement, which uses Waters Acquity UPLC system (Waters, Milford, MA) interfaced with a QTRAP 6500+ mass spectrometer (Sciex, Redwood City, CA) using electrospray source. The separation was achieved on a Waters Acquity BEH C18 50×2.1 mm 1.7 μm column with mobile phases of water with 0.1% of formic acid as mobile phase A and acetonitrile with 0.1% of formic acid as mobile phase B. The gradient was shown in Table 10. All the parameters on the mass spectrometer were optimized with pure standards of glyphosate and glyphosate-2-^13C (purchased from Millipore Sigma, Burlington MA) under positive MRM mode.

ddY mice = assay: Three-chamber social interaction test, offspring after maternal glyphosate exposure; details: juvenile offspring, maternal 0.095% glyphosate vs water treated group
Procedure: Treatment of TPPU. TPPU was dissolved in polyethylene glycol 400 (PEG 400: Tokyo Chemical Industry Co., Ltd, Tokyo, Japan). TPPU (3 mg/kg/day) or vehicle (5 ml/kg, PEG 400) was administered orally in the pregnant mice from E5 to P21. Behavioral tests of offspring were performed during juvenile stage (P28-P35) after maternal glyphosate exposure (FIG. 1A).
Three-chamber Social Interaction Test: The three-chamber social interaction test was performed to investigate sociability and preference for social novelty in mice, as reported previously (7). The apparatus consisted of a rectangular, three-chambered box and a lid with a video camera (BrainScience Idea, Co., Ltd, Osaka, Japan). Each chamber (20 cm×40 cm×20 cm) was divided by a clear plastic wall with a small square opening (5 cm×8 cm). First, each subject mouse was placed in the box and allowed to explore for 10 min to habituate the environment. During the session, an empty wire cage (10 cm in diameter, 17.5 cm in height, with vertical bars 0.3 cm apart) was located in the center of left and right chamber. Next, an unfamiliar ddY male mouse (stranger 1) that had no prior contact with the subject mouse was put into a wire cage that was placed into one of the side chambers. […] The time spent in each chamber and the time spent around each cage was recorded on video.

GAD67 = GAD67 immunohistochemistry in mPFC, offspring after MIA; details: adult offspring of poly(I:C)-treated mice vs saline-treated group
Procedure: Immunohistochemistry. Immunohistochemistry of PV was performed as reported previously (37,39,59,60). Mice were anesthetized with 5% isoflurane and sodium pentobarbital (50 mg/kg), and perfused transcardially with 10 mL of physiological saline, followed by 40 mL of ice-cold 4% paraformaldehyde in 0.1M phosphate buffer (pH 7.4). Brains were removed from the skulls and post fixed overnight at 4° C. in the same fixative. For the immunohistochemical analysis, 50 μm-thick serial, coronal sections of brain tissue were cut in ice-cold 0.01M phosphate buffered saline (pH 7.5) using a vibrating blade microtome (VT1000s, Leica Microsystems, Tokyo, Japan). Free-floating sections were treated with 0.3% H2O2 in 50 mM Tris-HCl saline (TBS) for 30 min and were blocked in TBS containing 0.2% Triton X-100 (TBST) and 1.5% normal serum for 1 h at room temperature. […] The sections were imaged, and the staining intensity of PV (or GADO immunoreactivity in the inflalimbic (IL) and prelimbic (PrL) regions of mPFC was analyzed using a light micro-scope equipped with a CCD camera (Olympus IX70, Tokyo, Japan) and the SCION IMAGE software package. Images of sections within mPFC region were captured using a 100× objective with a Keyence BZ-X710 microscope (Keyence Corporation, Osaka, Japan).

Ephx2 mRNA = assay: Quantitative RT-PCR of Ephx2 mRNA in brain regions of juvenile offspring after MIA; details: juvenile offspring of poly(I:C)-treated mice vs saline-treated mice
From the text: Gene expression analysis by quantitative real-time PCR. At juvenile (P28) stage, mice were sacrificed, and their brains were removed for measurement of gene expression of Ephx2 mRNA. Brain regions such as PFC, striatum, CA1, CA3 and DG of the hippocampus were dissected from brain on ice using a Leica microscope S9E (Leica Microsystems, Tokyo, Japan). A quantitative RT-PCR system (Step One Plus, Thermo Fisher Scientific, Yokohama, Japan) was used to measure mRNAs. The specific mRNA transcripts were quantified by TaqManGene Expression assays (Thermo Fisher Scientific, Yokohama, Japan). Expression levels of Ephx2 (Mm01313813_m1) was measured in brain tissue. Total RNA was extracted by use of an RNeasy Mini Kit (Qiagen, Hilden, Germany). The purity of total RNA was assessed by Biophotometer plus (Eppendorf, Hamburg, Germany). The RNA samples were used in the first strand cDNA synthesis with High Capacity cDNA Reverse Transcription Kit (#4368813 Thermo Fisher Scientific, Yokohama, Japan). All samples were tested in triplicate and average values were used for quantification. The average values were normalized to Vic-labeled Actb mRNA (Cat #4352341E: pre-developed TaqMan Assay Reagents, Thermo Fisher Scientific, Yokohama, Japan).

Row | Compound | blood levels of glyphosate on P21 (weaning) [1] | three-chamber social interaction test (ddY mice) | GAD67-IR in the PrL and IL of mPFC (GAD67) | expression of sEH (or Ephx2) mRNA in the PFC (Ephx2 mRNA)
1 | O=C(O)CNCP(=O)(O)O [glyphosate] | could detect | social interaction deficits | – | –
2 | polyriboinosinic-polyribocytidilic acid [Poly(I:C)] | – | – | significantly lower | significantly higher
